Here are results for 34 compounds from patent US20240391931A1 (Bristol-Myers Squibb Company, priority 2021, published 2024).

Structures are written as SMILES.

The target in this test is T1, EGFR WT (Homo sapiens, UniProt P00533).
T1 construct: purchased Thermo Fisher, Carlsbad, CA ERBB1 PR7295B
In words: Enzymatic assay EGFR WT (method c). Type of test: biochemical. As to conditions: [EGFR WT]=2 nM, [ATP]=1 mM, [Peptide 22]=1 μM. The protocol:
A 2× stock solution of HER2 WT (ERBB2 0108-0000-1; ProQinase, Freiburg, Germany) corresponding to method a, was prepared as described below. Alternatively, a 2× stock solution of HER2YVMA (custom purification; Viva biotech, Shanghai, China) corresponding to method b, was prepared as described below. For method c, a 2× stock of EGFR (ERBB1 PR7295B, Thermo Fisher, Carlsbad, CA) was prepared as described below. All 2× solutions were prepared in buffer containing 50 mM HEPES, pH 7.5, 10 mM MnCl2, MgCl2, 0.005% Tween 20, 1 mM TCEP. 25 ul of 2× enzyme solution was added to a Seahorse low volume 384-well polypropylene assay plate (201288-100, Seahorse Bioscience, Chicopee, MA) containing 1 μl of compound serially diluted in 50% DMSO. To initiate the reaction, 25 μl of solution containing 2× final concentration of ATP and ProfilerPro Peptide 22 (760366, Perkin Elmer Hopkinton, MA) was added to each well. The reactions were separated on an LC3000 (Caliper Life Sciences) or a LabChip EZReader (Perkin Elmer) in kinetic mode.
At the conclusion of each assay, the data were exported from the instrument as a .rda file (LC3000) and processed in proprietary software, EZReviewer, which determines the percent of substrate converted to product within a given cycle as (P/P+S)*100 by measuring the amplitude of substrate and product peaks. Cycle time varied with amount of compounds tested between 8 and 12 cycles. Initial velocity (0-3600 s) from each reaction was determined from the slope of a plot of percent conversion at each cycle versus time (seconds). Percent inhibition was determined by dividing the slope of each reaction by the uninhibited control using 100*(1-(x/uninhibited control)). IC50 estimates were obtained by plotting the concentration of inhibitor versus percent inhibition in GraphPad Prism (GraphPad Software, San Diego, CA) using log[inhibitor] versus Response (Variable Slope Model); Y=Min+((Max-Min)/(1+((IC50/x)^Hillslope)))
• a) [HER2 WT]=12.5 nM, [ATP]=25 μM, [Peptide 22]=1 μM (ATP KMapp˜25 μM) • b) [HER2YVMA]=5 nM, [ATP]=25 μM, [Peptide 22]=1 μM (ATP KMapp˜15 μM) • c) [EGFR WT]=2 nM, [ATP]=1 mM, [Peptide 22]=1 μM (ATP KMapp˜25 μM)

T1 sequence (P00533 25-1210): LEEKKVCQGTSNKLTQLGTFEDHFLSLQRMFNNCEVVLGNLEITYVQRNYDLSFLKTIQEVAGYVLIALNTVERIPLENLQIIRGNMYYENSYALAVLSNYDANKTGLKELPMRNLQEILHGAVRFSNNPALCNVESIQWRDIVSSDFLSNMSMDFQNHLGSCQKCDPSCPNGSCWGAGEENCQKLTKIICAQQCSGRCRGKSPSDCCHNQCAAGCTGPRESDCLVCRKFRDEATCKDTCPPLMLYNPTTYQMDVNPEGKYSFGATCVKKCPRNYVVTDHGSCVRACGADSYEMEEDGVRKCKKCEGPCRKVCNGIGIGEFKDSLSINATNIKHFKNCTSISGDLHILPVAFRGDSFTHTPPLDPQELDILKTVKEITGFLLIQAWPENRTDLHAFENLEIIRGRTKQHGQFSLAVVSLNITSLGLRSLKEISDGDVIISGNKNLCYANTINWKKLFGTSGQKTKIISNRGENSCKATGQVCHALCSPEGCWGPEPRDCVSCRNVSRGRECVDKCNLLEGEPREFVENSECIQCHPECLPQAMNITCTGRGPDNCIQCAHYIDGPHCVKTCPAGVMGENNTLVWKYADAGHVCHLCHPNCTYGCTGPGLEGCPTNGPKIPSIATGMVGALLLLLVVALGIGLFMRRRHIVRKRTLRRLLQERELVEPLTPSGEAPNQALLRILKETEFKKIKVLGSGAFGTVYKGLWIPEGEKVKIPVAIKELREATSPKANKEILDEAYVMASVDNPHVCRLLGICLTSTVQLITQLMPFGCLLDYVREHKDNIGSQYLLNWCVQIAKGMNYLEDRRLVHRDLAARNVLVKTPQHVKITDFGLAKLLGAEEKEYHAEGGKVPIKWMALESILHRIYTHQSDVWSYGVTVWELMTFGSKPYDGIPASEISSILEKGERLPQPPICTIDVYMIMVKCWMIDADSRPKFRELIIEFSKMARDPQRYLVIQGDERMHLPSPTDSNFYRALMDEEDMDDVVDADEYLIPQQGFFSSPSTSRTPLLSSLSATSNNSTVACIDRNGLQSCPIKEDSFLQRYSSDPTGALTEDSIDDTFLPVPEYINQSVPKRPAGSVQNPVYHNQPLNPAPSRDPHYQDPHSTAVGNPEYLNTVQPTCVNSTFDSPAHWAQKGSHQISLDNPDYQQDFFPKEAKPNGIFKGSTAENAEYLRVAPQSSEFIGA

With `Cc1ccc(Oc2ccc(Nc3ncnc4sc5c(c34)CCN(C(=O)/C=C/CN3CC4(CCCC4)C3)C5)cc2C)cn1` [Compound 123], the IC50 is more than 10 µM. As for `Cc1ccc(Oc2ccc(Nc3ncnc4sc5c(c34)C(C)CN(C(=O)C=CCN(C)C(C)(C)C)C5)cc2C)cn1` (single isomer, unassigned) [Compound 179], the figure is more than 10 µM; as for `Cc1ccc(Oc2ccc(Nc3ncnc4sc5c(c34)CCN(C(=O)/C=C/CN3CC[C@@H](CO)C3)C5)cc2C)cn1` [Compound 132], 1 to 10 µM; as for `Cc1ccc(Oc2ccc(Nc3ncnc4sc5c(c34)C(C)CN(C(=O)/C=C/CN(C)C(C)(C)C)C5)cc2C)cn1` (stereo not shown) [Compound 175], more than 10 µM. As to `Cc1ccc(Oc2ccc(Nc3ncnc4sc5c(c34)CN(C(=O)/C=C/CN(C)C)CC5)cc2C)cn1` [Compound 108, (E)-4-(Dimethylamino)-1-(4-((3-methyl-4-((6-methylpyridin-3-yl)oxy)phenyl)amino)-7,8-dihydropyrido[3′,4′:4,5]thieno[2,3-d]pyrimidin-6(5H)-yl)but-2-en-1-one], the IC50 was more than 10 µM. Consider `Cc1ccc(Oc2ccc(Nc3ncnc4sc5c(c34)CCN(C(=O)/C=C/CN3CC(F)(CO)C3)C5)cc2C)cn1` [Compound 151], for which the IC50 was more than 10 µM. Compound `Cc1ccc(Oc2ccc(Nc3ncnc4sc5c(c34)CCN(C(=O)/C=C/CN3CC[C@H](CO)C3)C5)cc2C)cn1` [Compound 133] had an IC50 of more than 10 µM. For the compound `COc1ccc(Oc2ccc(Nc3ncnc4sc5c(c34)CCN(C(=O)/C=C/CN3CCOCC3)C5)cc2C)cn1` [Compound 164], the IC50 is more than 10 µM.

Compound `Cc1cc(Nc2ncnc3sc4c(c23)CCN(C(=O)/C=C/CN(C)C)CC4)ccc1Oc1ccn2ccnc2c1` [Compound 172, (E)-4-(Dimethylamino)-1-(4-((4-(imidazo[1,2-a]pyridin-7-yloxy)-3-methylphenyl)amino)-8,9-dihydro-5H-pyrimido[5′,4′:4,5]thieno[2,3-d]azepin-7(6H)-yl)but-2-en-1-one] displayed an IC50 of more than 10 µM. `Cc1ccc(Oc2ccc(Nc3ncnc4sc5c(c34)CCN(C(=O)/C=C/CN3CCC(O)C(C)(C)C3)C5)cc2C)cn1` (stereo not shown) [Compound 114] displayed a concentration for half-maximal inhibition (IC50) of more than 10 µM. In the case of `Cc1cc(Nc2ncnc3sc4c(c23)CN(C(=O)/C=C/CN(C)C)C4)ccc1Oc1ccc2ncnn2c1` [Compound 111, (E)-1-(4-((4-([1,2,4]Triazolo[1,5-a]pyridin-6-yloxy)-3-methylphenyl)amino)-5H-pyrrolo[3′,4′:4,5]thieno[2,3-d]pyrimidin-6(7H)-yl)-4-(dimethylamino)but-2-en-1-one], the IC50 is more than 10 µM. As to `Cc1cc(Nc2ncnc3sc4c(c23)CN(C(=O)/C=C/CN(C)C)C4)ccc1Oc1ccn2ncnc2c1` [Compound 130, (E)-1-(4-((4-([1,2,4]Triazolo[1,5-a]pyridin-7-yloxy)-3-methylphenyl)amino)-5H-pyrrolo[3′,4′:4,5]thieno[2,3-d]pyrimidin-6(7H)-yl)-4-(dimethylamino)but-2-en-1-one], the half-inhibitory concentration (IC50) was more than 10 µM. The compound `Cc1ccc(Oc2ccc(Nc3ncnc4sc5c(c34)CCN(C(=O)/C=C/CN3CCC[C@H](n4cccn4)C3)C5)cc2C)cn1` [Compound 112] came in with an IC50 of more than 10 µM. The compound `Cc1ccc(Oc2ccc(Nc3ncnc4sc5c(c34)CCN(C(=O)/C=C/CN3CCCCC3(C)CO)C5)cc2C)cn1` (stereo not shown) [Compound 119] yielded an IC50 of more than 10 µM. Compound `CCN(CC)C/C=C/C(=O)N1CCc2c(sc3ncnc(Nc4ccc(Oc5ccc(OC)nc5)c(C)c4)c23)C1` [Compound 137] showed an IC50 of more than 10 µM. Take `Cc1ccc(Oc2ccc(Nc3ncnc4sc5c(c34)CCN(C(=O)/C=C/CN3CC(C)(C)OC(C)(C)C3)C5)cc2C)cn1` [Compound 121]: the IC50 was more than 10 µM. The compound `Cc1ccc(Oc2ccc(Nc3ncnc4sc5c(c34)CCN(C(=O)/C=C/CN3CCC[C@@H](CO)C3)C5)cc2C)cn1` [Compound 154] came in with an IC50 of more than 10 µM. In the case of `C=CC(=O)N1Cc2sc3ncnc(Nc4ccc(Oc5ccc(C)nc5)c(C)c4)c3c2C(C)C1` (stereo not shown) [Compound 142, 1-(5-methyl-4-((3-methyl-4-((6-methylpyridin-3-yl)oxy)phenyl)amino)-5,6-dihydropyrido[4′,3′:4,5]thieno[2,3-d]pyrimidin-7(8H)-yl)prop-2-en-1-one], the half-inhibitory concentration (IC50) is 1 to 10 µM. The compound `Cc1cc(Nc2ncnc3sc4c(c23)CCN(C(=O)/C=C/CN(C)C)C4)ccc1Oc1ccc2nccn2c1` [Compound 109, (E)-4-(dimethylamino)-1-(4-((4-(imidazo[1,2-a]pyridin-6-yloxy)-3-methylphenyl)amino)-5,6-dihydropyrido[4′,3′:4,5]thieno[2,3-d]pyrimidin-7(8H)-yl)but-2-en-1-one] registered an IC50 of more than 10 µM. On to `COc1ccc(Oc2ccc(Nc3ncnc4sc5c(c34)C(C)CN(C(=O)/C=C/CN(C)C)C5)cc2C)cn1` (stereo not shown) [Compound 152, (E)-4-(dimethylamino)-1-(4-((4-((6-methoxypyridin-3-yl)oxy)-3-methylphenyl)amino)-5-methyl-5,8-dihydropyrido[4′,3′:4,5]thieno[2,3-d]pyrimidin-7(6H)-yl)but-2-en-1-one], for which the IC50 is more than 10 µM. The figure for `Cc1ccc(Oc2ccc(Nc3ncnc4sc5c(c34)CCN(C(=O)/C=C/CN3CC[C@H](F)C3)C5)cc2C)cn1` [Compound 124] is more than 10 µM. `O=C(/C=C/CN1CCOCC1)N1CCc2c(sc3ncnc(Nc4ccc(Oc5ccc6ncnn6c5)c(Cl)c4)c23)C1` [Compound 18] returned an IC50 of more than 10 µM. `COc1ccc(Oc2ccc(Nc3ncnc4sc5c(c34)CCN(C(=O)/C=C/CN3CC[C@H](CO)C3)C5)cc2C)cn1` [Compound 140] gave an IC50 of more than 10 µM.

Regarding `Cc1cc(Nc2ncnc3sc4c(c23)CCN(C(=O)/C=C/CN(C)C)CC4)ccc1Oc1ccn2ncnc2c1` [Compound 168], the 50% inhibitory concentration (IC50) was more than 10 µM. In the case of `C=CC(=O)N1CCc2c(sc3ncnc(Nc4ccc(Oc5cccnc5)c(C)c4)c23)C1` [Compound 11, 1-(4-((3-methyl-4-(pyridin-3-yloxy)phenyl)amino)-5,8-dihydropyrido[4′,3′:4,5]thieno[2,3-d]pyrimidin-7(6H)-yl)prop-2-en-1-one], the IC50 was in the range of 1 to 10 µM. As to `C=CC(=O)N1Cc2sc3ncnc(Nc4ccc(Oc5ccc(C)nc5)c(C)c4)c3c2C(C)C1` (single isomer, unassigned) [Compound 146], the half-inhibitory concentration (IC50) lay in the range of 1 to 10 µM. The figure for `Cc1cc(Nc2ncnc3sc4c(c23)CCN(C(=O)/C=C/CN(C)C)C4)ccc1Oc1ccn2ccnc2c1` [Compound 126, (E)-4-(dimethylamino)-1-(4-((4-(imidazo[1,2-a]pyridin-7-yloxy)-3-methylphenyl)amino)-5,8-dihydropyrido[4′,3′:4,5]thieno[2,3-d]pyrimidin-7(6H)-yl)but-2-en-1-one] is more than 10 µM; for `Cc1ccc(Oc2ccc(Nc3ncnc4sc5c(c34)C(C)CN(C(=O)/C=C/CN3CCOCC3)C5)cc2C)cn1` (stereo not shown) [Compound 174, (E)-1-(5-Methyl-4-((3-methyl-4-((6-methylpyridin-3-yl)oxy)phenyl)amino)-5,6-dihydropyrido[4′,3′:4,5]thieno[2,3-d]pyrimidin-7(8H)-yl)-4-morpholinobut-2-en-1-one] it is more than 10 µM; for `Cc1ccc(Oc2ccc(Nc3ncnc4sc5c(c34)CCN(C(=O)/C=C/CN3CCO[C@H](CO)C3)C5)cc2C)cn1` [Compound 136] it is more than 10 µM. Compound `COc1ccc(Oc2ccc(Nc3ncnc4sc5c(c34)CCN(C(=O)/C=C/CN(C)C(C)(C)C)C5)cc2C)cn1` [Compound 163] returned an IC50 of more than 10 µM.

As for `Cc1cc(Nc2ncnc3sc4c(c23)CCN(C(=O)/C=C/CN(C)C)C4)ccc1Oc1ccc2scnc2c1` [Compound 107, (E)-1-(4-((4-(benzo[d]thiazol-5-yloxy)-3-methylphenyl)amino)-5,8-dihydropyrido[4′,3′:4,5]thieno[2,3-d]pyrimidin-7(6H)-yl)-4-(dimethylamino)but-2-en-1-one], the IC50 lay within 1 to 10 µM. The compound `Cc1ccc(Oc2ccc(Nc3ncnc4sc5c(c34)C(C)CN(C(=O)C=CCN(C)C(C)(C)C)C5)cc2C)cn1` (single isomer, unassigned) [Compound 178] had an IC50 of more than 10 µM. In turn, `COc1ccc(Oc2ccc(Nc3ncnc4sc5c(c34)CCN(C(=O)/C=C/CN(C)C)CC5)cc2C)cn1` [Compound 173, (E)-4-(Dimethylamino)-1-(4-((4-((6-methoxypyridin-3-yl)oxy)-3-methylphenyl)amino)-8,9-dihydro-5H-pyrimido[5′,4′:4,5]thieno[2,3-d]azepin-7(6H)-yl)but-2-en-1-one] displayed an IC50 of more than 10 µM. On to `C#CCOCCN(C)C/C=C/C(=O)N1CCc2c(sc3ncnc(Nc4ccc(Oc5ccc(C)nc5)c(C)c4)c23)C1` [Compound 139], for which the IC50 was more than 10 µM.
